Data on 6 molecules can be found in patent US6548634B1, “Synthetic peptides having FGF receptor affinity” (priority 1998, dated 2003).

Usually IC50 stands for the midpoint of a concentration-inhibition curve.

Read-outs that look alike come from different tables or passages of the source. Where a SMILES comes first, the peptide text is derived from it. Where no end group is shown, it is not given here.

Assay [1] deals with Swiss 3T3 fibroblasts. In words: BrdU incorporation (mitogenesis) in Swiss 3T3 fibroblasts. Conditions: for mitogenic activity in Swiss 3T3: BrdU incorporation. It is filed as cell-based. The protocol:
6×Histidine-tagged Clone 19-jun protein (FIG. 1A) was expressed in bacteria and purified by metal affinity chromatography as described in Example 5. Assay of BrdU incorporation, a measure of entry of cells into S-phase and therefore of mitogenesis, was performed according to manufacturers instructions (Cell proliferation ELISA, BrdU, Cat. No. 1-647-229, Boehringer-Mannheim, Indianapolis, Ind.). Briefly, 1×10^4 Swiss 3T3 cells per well were plated on gelatin-coated 96-well microtiter plates in complete media (DMEM, 10% FCS, antibiotics), incubated 24 hours, and the media changed to quiescent media for an addition 24 hours (DMEM containing 0.5 mg/ml bovine serum albumin, 1 μg/ml insulin, 5 μg/ml transferrin, antibiotics). The cells were then treated with bFGF or Clone 19-jun protein at the indicated concentrations in the presence of 15 U/ml heparin. 18 hours later, BrdU was added, the cells incubated an additional 4 hours, and assayed as described. […] Heparin alone had no effect, nor did a control protein expressed and purified in the same manner in which the C19 sequence was deleted.
A general note: Incorporation of labelled thymidine or its analogues reports DNA synthesis.

The target in assay [2] is T1, FGFR1c ECD (Homo sapiens, UniProt P11362).
T1 construct: human FGFR Ic (residues 1-377); made in house
T1 sequence (P11362 22-377): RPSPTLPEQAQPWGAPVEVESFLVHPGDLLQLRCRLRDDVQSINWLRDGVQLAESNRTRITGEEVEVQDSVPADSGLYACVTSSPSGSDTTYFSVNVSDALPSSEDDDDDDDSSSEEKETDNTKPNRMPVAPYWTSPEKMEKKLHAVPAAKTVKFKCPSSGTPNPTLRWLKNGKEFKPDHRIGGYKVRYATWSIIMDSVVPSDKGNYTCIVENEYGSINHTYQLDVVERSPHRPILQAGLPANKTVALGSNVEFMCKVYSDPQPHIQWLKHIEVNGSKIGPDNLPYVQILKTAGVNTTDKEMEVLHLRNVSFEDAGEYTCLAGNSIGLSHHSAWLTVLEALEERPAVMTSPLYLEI
In words: BIAcore real-time kinetic analysis on immobilized FGFR1c ECD. Conditions: absence of heparin. Type of assay: binding. The protocol: Apparent affinities for immobilized FGFR1c ECD were determined using BIAcore real-time kinetic analysis in the absence of heparin.
Protein representing the linker segments and c-jun leucine zipper without the C19 sequence (FIG. 2) was expressed, purified, and characterized as for C19jun. C19 peptide with an intrapeptide disulfide bond was synthesized, purified by HPLC, and characterized by mass spectroscopy. C19junΔhep protein was prepared by changing human c-jun residues Arg276, Arg279, Lys285, and Lys288 in the leucine zipper domain to glutamines. Expression, purification, and characterization was as for C19jun. […] The extracellular ligand-binding domain of human FGFR Ic (residues 1-377) and human erythropoietin receptor (residues 1-250) were fused to the Fc region of human IgG1, expressed in baculovirus and purified by protein A affinity chromatography. […] PDGF receptor Fc fusion protein was from R&D Systems.
On the technique in general: In SPR one partner is held on a chip, and binding of the other changes the refractive index at the surface.

Assay [3] concerns FGFR. As to the kind of experiment: FGFR autophosphorylation in Swiss 3T3 cells (anti-FGFR IP, anti-phosphotyrosine blot). It is filed as cell-based. Conditions: 1.0 nM bFGF or 50 nM C19jun, 15 U/ml heparin, 15 minutes. The protocol: (§1) To determine whether C19jun could activate FGF receptors in vivo, Swiss 3T3 cells were treated with basic FGF (bFGF) or purified C19jun protein. Cell extracts were then immunoprecipitated with anti-FGFR antibodies, analyzed by SDS-PAGE and immunoblotted with anti-phosphotyrosine antibodies. Extracts from bFGF and C19jun-stimulated 293 cells expressing FGFR1c were also immunoblotted with phospho-MAP Kinase-specific antibodies.
(§2) Swiss 3T3 fibroblasts, or 293 cells expressing full-length FGFRIc were incubated in quiescing media (DMEM, 1 μg/ml insulin, 5 μg/ml transferrin, 0.5 mg/ml BSA) for 24-48 hrs, and then stimulated with 1.0 nM bFGF or 50 nM refolded C19jun protein in the presence of 15 U/ml heparin for 15 minutes at 37° C. The cells were lysed and aliquots of lysate containing equal amounts of total protein were either analyzed directly by immunoblotting with phospho-MAPKspecific antibodies and anti-total MAPK antisera (New England Biolabs) or immunoprecipitated with anti-FGFR antisera and immunoblotted with anti-phosphotyrosine antibodies (Upstate Biotechnology, Inc.). Both bFGF and C19jun induced FGFR autophosphorylation and MAP kinase phosphorylation.

Assay [4] deals with PC12 cells. In words: PC12 cell neurite outgrowth. Type of assay: cell-based. Conditions: 1 nM bFGF or 2 nM C19-jun, 15 U/ml heparin, 4 days. The protocol:
1×10^4 PC12 cells per well were plated on mouse laminin-and-poly-L-lysine-coated 24-well plates in 1 ml of media (RPMI 1640, 10% horse serum, 5% FCS, antibiotics) and stimulated with 1 nM bFGF or 2 nM C19-jun protein in the presence of 15 U/ml heparin for 4 days.

For assay [5], the system named is 293 cells expressing full-length FGFR1c. In words: MAP kinase phosphorylation in 293 cells expressing FGFR1c. Type of assay: cell-based. Conditions: 1.0 nM bFGF or 50 nM C19jun, 15 U/ml heparin, 15 minutes. The protocol:
as §1, §2

The subject of assay [6] is control L6 cells. As to the kind of experiment: c-fos mRNA expression in control L6 cells that do not express FGFR. It is filed as cell-based.
For assay [7], the system named is L6 myoblast cell lines stably expressing FGFR1c. As to the kind of experiment: c-fos mRNA expression in L6 myoblasts stably expressing FGFR1c. Type of assay: cell-based.
Assay [8] has as its target T2, FGFR1c extracellular domain-IgG fusion protein (Homo sapiens, UniProt P11362).
T2 construct: human FGFR Ic (residues 1-377); made in house
T2 sequence (P11362 22-377): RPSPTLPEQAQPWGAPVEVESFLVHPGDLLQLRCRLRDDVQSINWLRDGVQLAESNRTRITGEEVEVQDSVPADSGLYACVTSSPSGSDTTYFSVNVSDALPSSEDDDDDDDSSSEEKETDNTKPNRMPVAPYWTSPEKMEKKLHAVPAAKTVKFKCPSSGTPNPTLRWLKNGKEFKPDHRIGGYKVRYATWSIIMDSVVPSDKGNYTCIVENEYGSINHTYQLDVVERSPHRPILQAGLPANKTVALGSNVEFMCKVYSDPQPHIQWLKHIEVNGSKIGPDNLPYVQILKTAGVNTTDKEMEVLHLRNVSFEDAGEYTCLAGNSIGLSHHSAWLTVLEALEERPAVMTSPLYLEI
As to the kind of experiment: Eu-labeled FGFR-IgG displacement from immobilized phagemid. Type of assay: binding. To be noted: phage-displayed peptide, FIG. 7, read-out: IC50, displacement of Europium-labeled FGFR-IgG by unlabeled FGFR-IgG. Here is the method:
The immobilization of phagemid using antibodies, followed by probing with selected ligand in an ELISA format has been reported previously (Valadon, P. & Scharff, M. D., 1996 J. Immunol. Methods 197, 171-179). We developed a more sensitive detection method using Europium chelate-conjugated target receptor.
Nunc Maxisorp 96-well plates were coated with […] anti-M13 antibody in […] 50 mM Na2CO3 pH 9.6 and blocked using the conditions described in Example 2. Phagemid (˜10^11 cfu) were applied to wells in binding buffer for 1 h and washed 6 times with PBS, 0.05% Tween 20, and 2 times with Delphia Wash Buffer (E&G Wallac). Serial dilutions of unlabeled FGFR-IgG were added along with a constant amount (500 pM−2.5 nM) of Europium-labeled FGFR-IgG in Delphia Assay Buffer (prepared according to instructions from E&G Wallac), and reactions allowed to incubate for 2 h. Wells were washed 8× in Delphia Wash Buffer, treated with 100 μL of Delphia Enhancer Solution and fluorescence measured. IC50 values were determined from four-parameter fits to displacement plots.

Assay [9] can be described thus: Binding to heparin agarose beads.

Consider “jun leucine zipper only: Protein representing the linker segments and c-jun leucine zipper without the C19 sequence (RIARLEEKVKTLKAQNSELASTANMLREQVAQLKQKVMN; not fully specified) [reference compound]”, for which the “mitogenic activity in Swiss 3T3” value is “abrogated mitogenic activity” in assay [1] (listed as Deletion of the C19 sequence from the fusion protein) and “had no effect” in [1] (listed as control protein). The Kd in assay [2] (BIAcore, approximate, read-out: KD, apparent affinity for immobilized FGFR1c ECD) is over 10000 nM.
For the molecule `CC[C@H](C)[C@@H]1NC(=O)[C@H](CCCCN)NC(=O)[C@H]([C@@H](C)O)NC(=O)[C@H](Cc2c[nH]c3ccccc23)NC(=O)[C@H](C)NC(=O)[C@H](CO)NC(=O)[C@H](CC(=O)O)NC(=O)[C@H]([C@@H](C)O)NC(=O)[C@H](Cc2ccccc2)NC(=O)[C@H](C(C)C)NC(=O)[C@H](CC(C)C)NC(=O)[C@H](C(C)C)NC(=O)[C@@H](NC(=O)[C@H](Cc2ccc(O)cc2)NC(=O)[C@H](CC(=O)O)NC(=O)[C@H](CC(=O)O)NC(=O)CNC(=O)[C@H](CO)NC(=O)[C@H](CCC(=O)O)NC(=O)[C@H](C)N)CSSC[C@@H](C(=O)N[C@@H](CC(=O)O)C(=O)N[C@@H](Cc2c[nH]c3ccccc23)C(=O)N[C@@H](CO)C(=O)N[C@@H](Cc2c[nH]cn2)C(=O)N[C@@H](Cc2ccccc2)C(=O)N[C@@H](CCCNC(=N)N)C(=O)N[C@@H](CC(N)=O)C(=O)O)NC1=O` [C19 synthetic peptide] (HELM PEPTIDE1{A.E.S.G.D.D.Y.C.V.L.V.F.T.D.S.A.W.T.K.I.C.D.W.S.H.F.R.N}$PEPTIDE1,PEPTIDE1,8:R3-21:R3$$$V2.0; N-terminus and C-terminus assumed), the “mitogenic activity in Swiss 3T3” value in [1] is reported as “did not induce mitogenesis even at high concentrations”.
With “bFGF: basic fibroblast growth factor, natural FGF receptor ligand used as comparator [reference compound]”, in assay [3], the FGFR autophosphorylation result is on record as “induced”. Moreover, the “neurite outgrowth / PC12 cell differentiation” value in [4] was “appearance of neurite extensions”. In addition, the EC50 in assay [1] (Swiss 3T3, 15 U/ml heparin, FIG. 3, read-out: EC50 stimulation of mitogenesis (BrdU incorporation)) was determined as 0.14 nM. Moreover, the MAP kinase phosphorylation entry in [5] was “induced”. In assay [6], the “c-fos mRNA expression in control L6 cells” value is reported as “neither was active”. In addition, the “c-fos mRNA expression in FGFR-expressing L6 cells” value in assay [7] is “stimulated c-fos mRNA expression”.
As to TLVCDTVLEGQWRVCNWE [F12 clone], the IC50 in assay [8] was about 12 nM.

B1: C19junΔhep: C19jun with c-jun residues Arg276, Arg279, Lys285, Lys288 in the leucine zipper changed to glutamines (protein)
chain: MAESGDDYCVLVFTDSAWTKICDWSHFRNGPGGGSGGGSGGGSGGGSGGGSRCGGQIAQLEEKVQTLQAQNSELASTANMLREQVAQLKQKVMNHGGCGGSGGHHHHHH
For the molecule B1, in assay [1], the “mitogenic activity in Swiss 3T3” value is “inactive”. Also, the “binding to immobilized FGFR ECD” value in assay [2] (in vitro) is given as “same apparent affinity as C19jun”. In assay [9], the heparin binding entry was “very low affinity for heparin”.

B2: F12jun: F12 sequence fused to GGGS linker, c-jun leucine zipper flanked by cysteines, polyhistidine tag; SEQ ID NO:43 (protein)
chain: MATLVCDTVLEGQWRVCNWEGPGGGSGGGSGGGSGGGSGGGSRCGGRIARLEEKVKTLKAQNSELASTANMLREQVAQLKQKVMNGGCGGSGGHHHHHH
As for B2, in assay [1] (Swiss 3T3, 18 hrs, 15 U/ml heparin, FIG. 6, read-out: EC50 mitogenic activity (BrdU incorporation)), the EC50 was about 1.7 nM.
